Entries after “also recorded” stand apart in the source; their conditions may differ. Like-named read-outs stand apart in the source and are kept apart here.
Key:
[1] = biological target: apoenzyme of methylmalonyl-CoA mutase (Propionibacterium freudenreichii subsp. shermanii, UniProt P11653); details: cited from earlier work
[2] = tested on: Chinese hamster cells (cytochrome c oxidase); format: cell-based
[3] = tested on: methylmalonyl-CoA mutase; format: cell-based, baby hamster
[4] = tested on: D. melanogaster; details: in vivo
[5] = tested on: Malpighian tubules of D. melanogaster; format: cell-based
[6] = human, in vivo, iv; cited from earlier work
[7] = tested on: D. melanogaster; details: in vivo; remark: listed apart in the source
[8] = tested on: methionine synthase; format: cell-based, baby hamster
[9] = tested on: D. melanogaster; details: in vivo; remark: listed apart in the source
[10] = tested on: VASP phosphorylation in rat C6 glioma cells; format: cell-based
[11] = tested on: Malpighian tubules of D. melanogaster; format: cell-based; remark: listed apart in the source
[12] = tested on: methylmalonyl-CoA mutase; format: biochemical, baby hamster
[13] = rabbit, in vivo, cited from earlier work
[14] = tested on: NO (nitrite plus nitrate), CS-54 cells; format: cell-based, rat
[15] = tested on: mouse leukemic cells; details: cited from earlier work
[16] = tested on: Chinese hamster cells; format: cell-based
[17] = biological target: methionine synthase apoenzyme (Homo sapiens, UniProt Q99707); details: cited from earlier work
[18] = tested on: NO (nitrite and nitrate) in Malpighian tubule medium; format: cell-based, D. melanogaster
[19] = tested on: BHK, CS-54, and C6 cells, human foreskin fibroblasts and HUVECs
[20] = tested on: Malpighian tubules of D. melanogaster; details: in vivo
[21] = tested on: VASP phosphorylation in CS-54 vascular smooth muscle cells; format: cell-based, rat
[22] = pig, in vivo; cited from earlier work
[23] = tested on: serum albumin
[24] = tested on: methionine synthase; format: biochemical, baby hamster
[25] = tested on: human monocytes and lymphocytes; details: cited from earlier work
[26] = tested on: baby chicks; details: in vivo, cited from earlier work
[27] = tested on: rats; details: rat, in vivo, sc; cited from earlier work
[28] = tested on: transcobalamin II; details: cited from earlier work
[29] = tested on: BHK, CS-54, and C6 cells, human foreskin fibroblasts and HUVECs; details: cited from earlier work
[30] = biological target: haptocorrin (Homo sapiens, UniProt P20061); details: cited from earlier work
[31] = tested on: NO (nitrite plus nitrate), C6 cells; format: cell-based, rat

methionine synthase apoenzyme, sequence (Q99707 whole entry): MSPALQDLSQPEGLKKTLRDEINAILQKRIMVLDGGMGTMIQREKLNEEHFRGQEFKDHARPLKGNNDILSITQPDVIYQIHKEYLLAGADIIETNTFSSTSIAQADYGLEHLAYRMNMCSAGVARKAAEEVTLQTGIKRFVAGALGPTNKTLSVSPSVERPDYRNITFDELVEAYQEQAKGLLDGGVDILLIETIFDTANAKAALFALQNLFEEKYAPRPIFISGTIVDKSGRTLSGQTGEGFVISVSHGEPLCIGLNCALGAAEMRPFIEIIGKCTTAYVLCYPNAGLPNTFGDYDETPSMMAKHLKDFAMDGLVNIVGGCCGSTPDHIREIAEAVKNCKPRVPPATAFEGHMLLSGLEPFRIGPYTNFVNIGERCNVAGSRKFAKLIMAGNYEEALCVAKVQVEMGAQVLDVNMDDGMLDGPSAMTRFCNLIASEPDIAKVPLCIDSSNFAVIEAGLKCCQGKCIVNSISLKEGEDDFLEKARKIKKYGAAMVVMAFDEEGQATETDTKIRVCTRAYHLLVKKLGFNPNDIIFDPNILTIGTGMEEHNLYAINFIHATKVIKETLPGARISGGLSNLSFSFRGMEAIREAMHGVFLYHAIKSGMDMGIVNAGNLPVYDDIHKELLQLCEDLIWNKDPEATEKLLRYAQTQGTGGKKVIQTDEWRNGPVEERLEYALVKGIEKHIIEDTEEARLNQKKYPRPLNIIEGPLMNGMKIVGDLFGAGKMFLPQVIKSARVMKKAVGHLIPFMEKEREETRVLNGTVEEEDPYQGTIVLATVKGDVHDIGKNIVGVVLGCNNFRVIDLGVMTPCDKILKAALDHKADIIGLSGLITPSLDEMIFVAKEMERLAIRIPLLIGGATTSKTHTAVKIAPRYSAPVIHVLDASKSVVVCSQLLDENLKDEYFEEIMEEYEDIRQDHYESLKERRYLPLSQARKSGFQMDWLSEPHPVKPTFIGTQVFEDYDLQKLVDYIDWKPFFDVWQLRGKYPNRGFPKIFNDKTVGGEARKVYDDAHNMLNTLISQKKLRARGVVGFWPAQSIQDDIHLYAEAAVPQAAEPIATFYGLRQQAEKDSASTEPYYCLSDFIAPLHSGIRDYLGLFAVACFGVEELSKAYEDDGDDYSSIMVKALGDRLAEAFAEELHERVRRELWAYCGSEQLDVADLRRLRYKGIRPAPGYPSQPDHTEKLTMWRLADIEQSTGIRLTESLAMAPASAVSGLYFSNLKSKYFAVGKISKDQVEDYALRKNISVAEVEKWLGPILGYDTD
apoenzyme of methylmalonyl-CoA mutase, sequence (P11652 2-638): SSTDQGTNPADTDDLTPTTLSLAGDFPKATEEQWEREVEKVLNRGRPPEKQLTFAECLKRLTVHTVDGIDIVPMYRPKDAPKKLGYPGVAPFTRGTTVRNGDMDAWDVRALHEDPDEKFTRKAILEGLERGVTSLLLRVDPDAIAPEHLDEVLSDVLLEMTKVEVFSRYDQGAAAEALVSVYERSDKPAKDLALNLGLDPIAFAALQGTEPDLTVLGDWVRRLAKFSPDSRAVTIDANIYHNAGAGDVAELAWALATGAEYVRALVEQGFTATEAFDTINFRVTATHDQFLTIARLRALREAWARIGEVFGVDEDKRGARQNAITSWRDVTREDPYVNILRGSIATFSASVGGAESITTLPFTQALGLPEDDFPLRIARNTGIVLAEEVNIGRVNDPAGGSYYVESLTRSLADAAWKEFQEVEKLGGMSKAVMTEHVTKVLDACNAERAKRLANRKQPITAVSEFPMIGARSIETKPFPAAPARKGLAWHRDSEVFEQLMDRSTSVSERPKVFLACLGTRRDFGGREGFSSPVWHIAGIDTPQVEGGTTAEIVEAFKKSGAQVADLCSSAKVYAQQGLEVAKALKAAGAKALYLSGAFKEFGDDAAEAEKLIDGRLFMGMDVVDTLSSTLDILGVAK
apoenzyme of methylmalonyl-CoA mutase, sequence (P11653 2-728): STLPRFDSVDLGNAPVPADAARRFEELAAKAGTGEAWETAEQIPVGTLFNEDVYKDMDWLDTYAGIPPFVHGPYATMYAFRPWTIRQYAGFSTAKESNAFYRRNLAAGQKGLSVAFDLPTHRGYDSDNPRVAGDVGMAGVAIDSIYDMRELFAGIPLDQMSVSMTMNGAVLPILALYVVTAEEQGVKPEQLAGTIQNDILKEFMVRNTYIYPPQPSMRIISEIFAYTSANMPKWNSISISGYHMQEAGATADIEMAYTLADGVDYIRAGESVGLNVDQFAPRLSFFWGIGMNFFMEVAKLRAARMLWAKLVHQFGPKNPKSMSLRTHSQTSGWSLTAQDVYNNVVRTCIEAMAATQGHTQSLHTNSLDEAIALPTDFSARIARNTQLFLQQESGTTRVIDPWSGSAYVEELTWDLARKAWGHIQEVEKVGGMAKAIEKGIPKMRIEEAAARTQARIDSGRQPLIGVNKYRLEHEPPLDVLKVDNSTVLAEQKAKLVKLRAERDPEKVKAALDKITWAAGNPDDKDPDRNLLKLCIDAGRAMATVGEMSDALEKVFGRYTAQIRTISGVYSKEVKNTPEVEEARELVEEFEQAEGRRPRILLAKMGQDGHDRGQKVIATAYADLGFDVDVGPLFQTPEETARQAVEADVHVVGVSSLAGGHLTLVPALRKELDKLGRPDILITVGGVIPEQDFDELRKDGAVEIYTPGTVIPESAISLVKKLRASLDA
haptocorrin, sequence (P20061 24-433): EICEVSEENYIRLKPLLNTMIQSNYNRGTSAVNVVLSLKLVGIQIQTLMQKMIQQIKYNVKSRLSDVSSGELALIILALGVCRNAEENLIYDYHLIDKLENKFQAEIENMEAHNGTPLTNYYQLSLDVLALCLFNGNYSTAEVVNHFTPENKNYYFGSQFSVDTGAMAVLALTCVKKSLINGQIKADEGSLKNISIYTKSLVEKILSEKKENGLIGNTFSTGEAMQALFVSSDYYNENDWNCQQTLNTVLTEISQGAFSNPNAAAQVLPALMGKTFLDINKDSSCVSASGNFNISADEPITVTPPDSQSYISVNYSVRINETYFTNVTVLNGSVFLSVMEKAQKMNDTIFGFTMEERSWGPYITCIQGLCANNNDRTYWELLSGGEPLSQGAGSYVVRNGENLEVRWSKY

Question: With 5′-deoxyadenosyl-cobinamide as the compound, how does the “restoring function to the apoenzyme of methylmalonyl-CoA mutase” value [1] read?
Answer: inactive

Question: Which “effect on oxygen consumption” value [2] does the source give for `C/C1=C2/[N-][C@H]([C@H](CC(N)=O)[C@@]2(C)CCC(=O)NC[C@H](C)OP(=O)([O-])O[C@H]2[C@@H](O)[C@@H](n3cnc4cc(C)c(C)cc43)O[C@@H]2CO)[C@]2(C)N=C(/C(C)=C3N=C(/C=C4N=C1[C@@H](CCC(N)=O)C\4(C)C)[C@@H](CCC(N)=O)[C@]\3(C)CC(N)=O)[C@@H](CCC(N)=O)[C@]2(C)CC(N)=O.[Co+2]` (stereo in doubt) [cobalamin, reference compound] here?
Answer: Neither cobinamide nor cobalamin alone had any effect on oxygen consumption

Question: What about the “recovery of respiration, of control non-KCN-treated cells” value [2] of the same compound?
Answer: 42%

Question: And the “prevention of cobinamide effect on [14C]-propionic acid incorporation” value [3]?
Answer: completely prevented

Question: What about the flies salvaged [4] of the same compound?
Answer: 62%

Question: And the flies survived [4]?
Answer: 44%

Question: What about the mortality rate [4] of the same compound?
Answer: 55%

Question: What about the basal secretion rates [5] of the same compound?
Answer: no effect on basal secretion rates

Question: And the “resistance to KCN inhibition of tubular secretion” value [5]?
Answer: significant resistance to the inhibitory effect of KCN; also recorded: intermediate degree of resistance to KCN

Question: What about the “mean peak serum concentration” value [6] of the same compound?
Answer: about 650 μM

Question: What about the survival rate [7] of the same compound?
Answer: 38%

Question: And the “prevention of cobinamide effect on [14C]-formate incorporation” value [8]?
Answer: completely prevented

Question: What about the toxicity to flies [9] of the same compound?
Answer: No toxicity

Question: What about the “effect on NO scavenging by cobinamide, VASP phosphorylation” value [10] of the same compound?
Answer: no effect on NO scavenging by cobinamide

Question: And the “effect on NO scavenging by cobinamide, tubular fluid secretion” value [11]?
Answer: no effect on NO scavenging by cobinamide

Question: Which “effect on oxygen consumption” value [2] does the source give for `C/C1=C2/[N-][C@H]([C@H](CC(N)=O)[C@@]2(C)CCC(=O)NC[C@@H](C)O)[C@]2(C)N=C(/C(C)=C3N=C(/C=C4N=C1[C@@H](CCC(N)=O)C\4(C)C)[C@@H](CCC(N)=O)[C@]\3(C)CC(N)=O)[C@@H](CCC(N)=O)[C@]2(C)CC(N)=O.[Co+3]` [cobinamide] here?
Answer: Neither cobinamide nor cobalamin alone had any effect on oxygen consumption

Question: What about the “recovery of respiration, of control non-KCN-treated cells” value [2] of the same compound?
Answer: about 75%

Question: What about the “decrease of [14C]-propionic acid incorporation into protein” value [3] of the same compound?
Answer: about 50%

Question: And the “HCN exposure time without any significant increase in mortality” value [4]?
Answer: up to 15 min

Question: What about the flies salvaged [4] of the same compound?
Answer: 94%

Question: What about the flies survived [4] of the same compound?
Answer: 65%

Question: What about the “flies surviving / recovered by 1 h” value [4] of the same compound?
Answer: approximately 90%

Question: And the mortality rate [4]?
Answer: 18%

Question: What about the “outcome of prolonged HCN exposure” value [4] of the same compound?
Answer: death of all flies

Question: And the prevention of death [4]?
Answer: as effective in preventing death under these conditions as it was when administered prior to cyanide exposure

Question: And the “methylmalonyl-CoA mutase activity in BHK cell extracts” value [12]?
Answer: no effect

Question: What about the basal secretion rates [5] of the same compound?
Answer: no effect on basal secretion rates

Question: What about the “resistance to KCN inhibition of tubular secretion” value [5] of the same compound?
Answer: significant resistance to the inhibitory effect of KCN; also recorded: almost complete reversal of the toxic effects of KCN

Question: What about the tubular secretion rates [5] of the same compound?
Answer: tubular secretion rates increased significantly

Question: What about the “release from the liver, t?” value ([13]; iv) of the same compound?
Answer: ~150 h

Question: What about the liver retention [13] of the same compound?
Answer: retained more by the liver than cobalamin

Question: What about the “nitrite plus nitrate concentrations in medium” value [14] of the same compound?
Answer: significant decrease in the nitrite plus nitrate concentrations

Question: And the growth inhibitory effects [15]?
Answer: no growth inhibitory effects

Question: And the “growth rate of KCN-treated cells” value [16]?
Answer: restored their growth rate to normal

Question: What about the “restoration of methionine synthase apoenzyme activity” value [17] of the same compound?
Answer: can restore the methionine synthase apoenzyme to full activity

Question: What about the “reduction of combined nitrite and nitrate” value [18] of the same compound?
Answer: about 50%

Question: What about the “concentration at which toxicity began to be observed” value [19] of the same compound?
Answer: about 50 μM

Question: And the “reduction of LPS-stimulated tubular secretion rates compared to control flies” value [20]?
Answer: about 50%

Question: What about the “A23187-induced VASP phosphorylation” value [21] of the same compound?
Answer: significantly attenuated this effect

Question: And the “absorption across the ileum” value [22]?
Answer: can be absorbed across the ileum independently of intrinsic factor

Question: And the survival rate [7]?
Answer: 65%

Question: What about the “binding to serum albumin” value [23] of the same compound?
Answer: binds tightly to serum albumin

Question: And the “decrease of [14C]-formate incorporation into purine nucleotides” value [8]?
Answer: about 50%

Question: And the “inhibition of in vivo methionine synthase activity” value [8]?
Answer: minimal inhibition

Question: What about the “methionine synthase activity in BHK cell extracts” value [24] of the same compound?
Answer: no effect

Question: And the growth inhibitory effects [25]?
Answer: no growth inhibitory effects

Question: And the “growth of baby chicks” value ([26]; po)?
Answer: did inhibit chick growth

Question: What about the “growth of baby chicks” value [26] of the same compound?
Answer: no effect on the growth of baby chicks

Question: And the “inhibition of methionine synthase or methylmalonyl-CoA mutase” value [27]?
Answer: nor did cobinamide inhibit the two mammalian cobalamin-dependent enzymes

Question: What about the toxic effects [27] of the same compound?
Answer: no apparent toxic effects

Question: And the “detrimental effect on the flies” value [9]?
Answer: no apparent detrimental effect

Question: What about the toxicity to flies [9] of the same compound?
Answer: No toxicity

Question: What about the “binding to transcobalamin II” value [28] of the same compound?
Answer: binds poorly

Question: And the “not toxic to cultured mammalian cells up to” value [29]?
Answer: at least 50 μM

Question: What about the binding to haptocorrin [30] of the same compound?
Answer: binds tightly

Question: What about the “nitrite plus nitrate concentrations in medium” value [31] of the same compound?
Answer: significant decrease in the nitrite plus nitrate concentrations

Question: What about the “8-pCPT-cGMP-induced VASP phosphorylation” value [10] of the same compound?
Answer: no effect

Question: And the “PAPA-NONOate-induced VASP phosphorylation” value [10]?
Answer: prevented the increase in VASP phosphorylation; also recorded: prevented increases in VASP phosphorylation

Question: And the “rate of tubular secretion” value [11]?
Answer: rapidly reduced tubular secretion, returning rates near to the basal state
